Measured values reported in patent publication US12558348B2, “Bioactive phytochemicals” (Phytoquest Limited, priority 2019, dated 2026).

Tested on: TNF-α
Assay: Production of TNF-α by human monocytic cell line THP-1
Assay type: cell-based
Method: THP-1 cells are commercially available. Cultured cells can be placed in RPMI complete medium in microtitre plates (e.g. […] in 96 well plates) and after 24 hrs incubation, PMA (10 ng/mi) added to 96 well plate to differentiate THP-1 cells and to determine the effects on TNF-α and IL-10 production. The cells should be pre-treated with cucumber extract at, for example, 200 μg/ml to 25 μg/ml followed by 2 hr LPS (100 ng/ml) stimulation. Post incubation, the cell supernatant is aspirated from each of the wells into sterile micro centrifuge tubes and centrifuged at 1000 rpm for 2-3 mins to settle any cells if present. The cell supernatant is then used for evaluation of presence of TNF-α or IL-10 using ELISA. Sandwich ELISA plates coated with suitable antibody are widely available (e.g. R&D Systems, USA).
A second study indicated even greater activity for idoBR1 in human blood (significant at 0.01 μM) with pre-incubation. […] The data clearly indicate that idoBR1 can inhibit the production of TNF-α in human blood. Thus, it appears that it may be a potent anti-inflammatory agent. It also appears that it may be acting via a novel mechanism distinct from the steroid receptor pathways.

Row | SMILES | effect on TNF-α production from THP-1 cells (alone with LPS) | inhibition at 50 µM (Homo sapiens, THP-1, 50 μM, identical pretreatment)
1 | CC#C[C@]1(O)CC[C@H]2[C@@H]3CCC4=CC(=O)CCC4=C3[C@@H](c3ccc(N(C)C)cc3)C[C@@]21C [Mifepristone, reference compound] | greatly amplified | –
2 | C[C@@H]1C[C@H]2[C@@H]3CCC4=CC(=O)C=C[C@]4(C)[C@@]3(F)[C@@H](O)C[C@]2(C)[C@@]1(O)C(=O)CO [dexamethasone, reference compound] | – | > 65%
